The values that follow come from patent US20250338846A1, “COMPOSITIONS HAVING PESTICIDAL UTILITY AND PROCESSES RELATED THERETO” (CORTEVA AGRISCIENCE, LLC, priority 2022, published 2025).

The structures appear in SMILES notation.

Common to all, as to assay type: in vivo
In assay [1] the test system is Western Flower Thrips (Frankliniella occidentalis, FRANOC). In words: Bioassay 3: Western Flower Thrips, cotton leaf disc dip, live WFT counted 3 days after treatment. The settings on record: AI alone 0.0003125 % w/v. The protocol:
(§1) Stock solutions of Formula One and various active ingredients were prepared initially at a concentration of 8 mg/ml for Formula One and 1 mg/mL for the active ingredients, respectively, using acetone as a diluent. Stock solutions were prepared with Formula One as well as for each of the active ingredients individually. Test solutions were prepared from the stock solutions. Test solutions were prepared containing Formula One, the individual active ingredients, and mixtures of Formula One with each of the active ingredients. The test solution for Formula One was prepared by adding 500 μL of the stock solution to a 25 mL glass vial, then adding 500 μL of acetone, followed by the addition of 9 mL water with 0.025% Tween®) 20 to create a 0.04% (w/v) solution. The test solutions of the individual active ingredients were prepared by adding 500 μL of stock solution to a 25 mL glass vial, then adding 500 μL of acetone, followed by the addition of 9 mL water with 0.025% Tween®) 20 to create a 0.005% (w/v) solution. The test solutions containing mixtures of Formula One and the individual active ingredients were prepared by adding 500 μL of the active ingredient stock solution to a 25 mL glass vial, followed by 500 μL of the Formula One stock solution, then by the addition of 9 mL water with 0.025% Tween®) 20 to create a test solution containing 0.04% (w/v) Formula One and 0.005% (w/v) of the active ingredient. Each test solution was serially diluted to create desired doses of test solutions (0.005% (w/v), 0.00125% (w/v), 0.0003125% (w/v), 0.000078% (w/v), and 0.0000195% (w/v)). In test solutions containing mixtures of Formula One and the active ingredients, the active ingredients were diluted as described above, but the Concentration of Formula One was held constant (0.04% (w/v)).
The test solutions were tested against WFT using the following procedure: Leaf discs (2.7 cm in diameter) were cut from the true leaves of cotton plants. Leaf discs were dipped into the test solutions and shaken to ensure complete coverage of the leaf disc and then placed in Millipore®) PetriSlides containing a filter paper disc. Treated leaf discs were air dried for approximately 1 hour. Each leaf disc was infested with 5 WFT (9-10-day old nymphs) by placement on each leaf disc, and the PetriSlides were capped to prevent escape. Each treatment was replicated three times and the test treatments were held at approximately 26° C. and ambient relative humidity (RH) prior to grading. Reference discs (solvent check) were treated with the diluent only. Evaluation was conducted by counting the number of live WFT under magnification 3 days after treatment. Percent control was measured using Abbott's correction formula (W. S. Abbott, J. Econ. Entomol. 18 (1925), pp. 265-267) as follows:
(§2) where X=No. of live nymphs on solvent check leaf discs and Y=No. of live nymphs on treated leaf discs. In Table B3 the “Expected % Control” was calculated using the method described in Colby S. R., Weeds, 1967, 15, 20-22. Bioassay 4: Western Tarnished Plant Bug (Lygus hesperus, LYGUHE) (“WTPB”).

The subject of assay [2] is Western Tarnished Plant Bug (Lygus hesperus, LYGUHE). In words: Bioassay 4: Western Tarnished Plant Bug, soaked green bean segments, living nymphs 3 days after application. The settings on record: AI alone 0.005 % w/v. The protocol:
as §2
as §1, with “Stock” for “Stock solutions of Formula One and various active ingredients were prepared initially at a concentration of 8 mg/ml for Formula One and 1 mg/mL for the active ingredients, respectively, using acetone as a diluent. Stock”
The test solutions were tested against WTPB using the following procedure: Fresh green beans were cut into segments approximately 1.5 inches long. Four bean segments were added to each 25 mL vial containing the test solutions and soaked for approximately 15 minutes. After soaking, a single bean fragment was removed and placed into a single well of a 32-well rearing tray (Frontier Agricultural Sciences™), on top of a round filter paper disc. A reference treatment (solvent check) was treated with the diluent only. Each treatment was replicated four times and the test treatments were held at approximately 26° C. and ambient relative humidity (RH) prior to grading. Bean segments were allowed to air dry for ˜30 minutes. Three WTPB nymphs were added to and contained in each well with a clear perforated adhesive lid. The total number of living WTPB nymphs was recorded 3 days after application. Scoring was based off the total number of living nymphs out of all four replicates. Percent control was measured using Abbott's correction formula (W. S. Abbott, J. Econ. Entomol. 18 (1925), pp. 265-267) as follows:
X=No. of live nymphs on solvent check and Y=No. of live nymphs on treated bean segments. In Table B4 the “Expected % Control” was calculated using the method described in Colby S. R., Weeds, 1967, 15, 20-22. Bioassay 5: Neotropical Brown Stink Bug (Euschistus heros, EUSCHE) (“BSB”).

The subject of assay [3] is Cotton Aphid (Aphis gossypii, APHIGO). In words: Bioassay 7: Cotton Aphid, foliar spray on infested cotton seedlings, live aphids counted three days after treatment. The settings on record: AI alone 5 (10^-5) Wt %. As for the experimental part: where X=No. of live larvae on solvent check and Y=No. of live larvae on treated diet. In Table B6 the “Expected % Control” was calculated using the method described in Colby S. R., Weeds, 1967, 15, 20-22. Bioassay 7: Cotton Aphid (Aphis gossypii, APHIGO) (“CA”).
Stock solutions of Formula One and one or more of the active ingredients were prepared at concentrations of 1 mg/mL using a 1:1 mixture of acetone: methanol as a diluent. The stock solutions were prepared with Formula One as well as for each of the active ingredients individually. Test solutions were prepared from the stock solutions. Test solutions were prepared containing Formula One, the individual active ingredients, and mixtures of Formula One with each of the active ingredients. The test solutions for Formula One and the individual active ingredients were prepared by adding 1.5 mL of stock solution to a 30 mL glass vial, then adding 1.5 mL of 1:1 acetone: methanol solvent, followed by the addition of 27 mL water with 0.025% Tween® 20 to create a […]. Each test solution was serially diluted to create desired doses of test solutions ranging from 0.000001 to 0.0025% (w/v). The test solutions were tested against CA using the following procedure: cotton seedlings were grown in 3-inch pots with one true leaf (2-5 cm in diameter) were used as test substrate. The seedlings were infested with 20-50 CA (wingless adult and nymph stages) one day prior to chemical application. Four pots with individual seedlings were used for each treatment. A hand-held aspirator-type sprayer was used for spraying a solution to both sides of […] leaves until runoff. Reference plants (solvent check) were sprayed with the diluent only (0.025% Tween® 20 and 10% acetone:methanol (1:1) in water). Treated plants were held in a holding room for three days at approximately 25° C. and ambient relative humidity (RH about 20% to about 45%) prior to grading. Evaluation was conducted by counting the number of live aphids per plant under a microscope three days after treatment. Percent control was measured using Abbott's correction formula (W. S. Abbott, J. Econ. Entomol. 18 (1925), pp. 265-267) as follows:
where X=No. of live aphids on solvent check plants and Y=No. of live aphids on treated plants. In Table B1 the “Expected % Control” was calculated using the method described in Colby S. R., Weeds, 1967, 15, 20-22. Bioassay 8: Sweet Potato Whitefly (Bemisia tabaci, BEMITA) (“SPW”).

Assay [4] concerns Diamondback Moth (Plutella xylostella, PLUTMA). In words: Bioassay 9: Diamondback Moth, leaves of track-sprayed cabbage plants, mortality and feeding damage scored. The protocol:
where X=No. of live nymphs on solvent check plants and Y=No. of live nymphs on treated plants. In Table B2 the “Expected % Control” was calculated using the method described in Colby S. R., Weeds, 1967, 15, 20-22. Bioassay 9: Diamondback Moth (Plutella xylostella, PLUTMA) (DBM).
Stock solutions were prepared with Formula One as well as for each of the active ingredients individually. Test solutions were prepared from the stock solutions. Test solutions were prepared containing Formula One, the individual active ingredients, and mixtures of Formula One with each of the active ingredients. The test solution for Formula One was prepared by adding 500 μL of the stock solution to a 25 mL glass vial, then adding 500 μL of a 9:1 mixture of acetone: water. The individual active ingredients were prepared by adding 500 μL of stock solution to a 25 mL glass vial, then adding 500 μL of a 9:1 mixture of acetone: water. The test solutions containing mixtures of Formula One and the individual active ingredients were prepared by adding 500 μL of the active ingredient stock solution to a 25 mL glass vial, followed by 500 μL of the Formula One stock solution, creating a test solution containing 4000 ppm Formula One and 0.4% (w/v) of the active ingredient. Each test solution was serially diluted to create desired doses of test solutions (0.4% (w/v), 0.04% (w/v), 0.004% (w/v), 0.0004% (w/v), 0.00004% (w/v), and 0.000004% (w/v)). In test solutions containing mixtures of Formula One and the active ingredients, the active ingredients were diluted as described above, but the Concentration of Formula One was held constant (0.4% (w/v)). The highest dose test solution (0.4% (w/v)) was discarded, leaving 5 test solution concentrations used in the test.
Cabbage seedlings, grown in 3-inch pots with 2-3 small (3-5 centimeter (cm)) true leaves, were used as test substrate. Cabbage plants were sprayed with desired concentrations of Formula One and active ingredients or their mixtures using a track Sprayer. Reference plants (solvent check) were sprayed with diluent only (0.025% Tween® 20 and 10% acetone:methanol (1:1) in water). The sprayed cabbage plants were allowed to dry for 1 hour, after which leaves from each treatment were placed in a cell of a plastic tray. One leaf per cell and 8 replicates for each cell. The tested doses ranged between 0.000001% (w/v) to 0.0002% (w/v). One 2nd instar DBM larvae were placed in each cell of the tray and allowed to feed on the cabbage foliage for […] after which the mortality and feeding damage were scored. Test trays were held at approximately 26° C. and ambient relative humidity (RH) prior to grading. The number of live larvae were recorded from each cell and percent control was measured using Abbott's correction formula (W. S. Abbott, J. Econ. Entomol. 18 (1925), pp. 265-267) as follows:
where X=No. of live larvae on solvent check and Y=No. of live larvae on treated diet. In Table B6 the “Expected % Control” was calculated using the method described in Colby S. R., Weeds, 1967, 15, 20-22.

With `O=c1c(-c2cccc(C(F)(F)F)c2)c([O-])[n+](Cc2cncnc2)c2ccccn12` [Triflumezopyrim], the “Average % Control AI” value in assay [1] is recorded as 7%; in assay [2], 9%.
On to `CC1(C)C(C=C(Cl)Cl)C1C(=O)OC(C#N)c1ccc(F)c(Oc2ccccc2)c1` (stereo not drawn) [Beta-Cyfluthrin], for which the “Average % Control A1” value in assay [3] is listed as 21.34%. Further, the “Average % Control AI” value in assay [4] (AI alone 5 (10^-5) Wt %) was 13.64%; in assay [4] (AI alone 10 (10^-5) Wt %), 27.27%; in assay [4] (AI alone 20 (10^-5) Wt %), 72.73%.
